Source: PubChem BioAssay (NCI)
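Dose response: 5 concentrations. Exposure: 48 h. Format: 96-well plates. Endpoint: linear interpolation; highest concentration if not reached. GI50 marks 50% less growth. Definition used: TGI = concentration required for complete inhibition of growth.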

Experiments:
Test in all cases: NCI anticancer screen, dose series, 48 h
HCT-116 colon = test system: HCT-116 colon
SNB-78 CNS = test system: SNB-78 CNS
HT29 colon = test system: HT29 colon
SK-MEL-2 melanoma = test system: SK-MEL-2 melanoma
DMS 114 small cell lung = test system: DMS 114 small cell lung
M14 melanoma = test system: M14 melanoma
HOP-62 NSCLC = test system: HOP-62 NSCLC
SW-620 colon = test system: SW-620 colon
DLD-1 colon = test system: DLD-1 colon
PC-3 prostate = test system: PC-3 prostate

Structure (SMILES) | TGI (HCT-116 colon) [µM] | TGI (SNB-78 CNS) [µM] | TGI (HT29 colon) [µM] | TGI (SK-MEL-2 melanoma) [µM] | TGI (DMS 114 small cell lung) [µM] | TGI (M14 melanoma) [µM] | TGI (HOP-62 NSCLC) [µM] | TGI (SW-620 colon) [µM] | TGI (DLD-1 colon) [µM] | GI50 (HCT-116 colon) [µM] | GI50 (PC-3 prostate) [µM] | TGI (PC-3 prostate) [µM] | GI50 (HT29 colon) [µM] | GI50 (SK-MEL-2 melanoma) [µM] | GI50 (M14 melanoma) [µM] | GI50 (HOP-62 NSCLC) [µM] | GI50 (SW-620 colon) [µM]
CCOC(=O)C(Cc1c[nH]c2cc([N+](=O)[O-])ccc12)NS(=O)(=O)c1ccc2ccccc2c1 (configuration not stated) | 30.9 | 47.7 | 31 | 35.1 | 38.3 | 34.1 | 31.4 | 44.4 | 65.7 |  |  |  |  |  |  |  | 
c1ccc(C2OC3(CCC[C@H]4C[C@H]43)O[C@H]2c2ccccc2)cc1 (some centres not stated) | > 100 | > 100 | > 100 | 39.6 | 74.9 | > 100 | > 100 | > 100 | > 100 |  |  |  |  |  |  |  | 
CC1=C(SCCC(=O)OC(C[Se]C2=C(C)C(=O)c3ccccc3C2=O)C(=O)NCCCCCC(=O)OCc2ccccc2)C(=O)c2ccccc2C1=O (configuration not stated) | 4.6 |  | 13.3 | 18.9 |  | 4.22 | 14.4 | 9.34 |  | 1.99 | 2.55 | 9.13 | 3.56 | 5.5 | 2.01 | 3.82 | 2.43
COC(=O)c1ccc(CN2C(=O)C(Cl)=C(Nc3cccc(Cl)c3C)C2=O)cc1 | > 100 |  | > 100 | 21.9 |  | > 100 | > 100 | 26.4 |  | 4.44 | 37.6 | > 100 | 4.85 | 3.48 | 4.01 | 14.2 | 3.45
CN(c1ccc(C(=O)c2ccc(N(C)S(C)(=O)=O)cc2)cc1)S(C)(=O)=O | > 100 | > 100 | > 100 | > 100 | 61.1 |  |  | > 100 | > 100 |  |  |  |  |  |  |  | 
CCc1cccc(C)c1NC(=O)C(=O)CC(=O)c1ccc(Cl)s1 | > 100 | > 100 | > 100 | > 100 |  | > 100 | > 100 | > 100 | > 100 |  |  |  |  |  |  |  | 
O=C(O)c1ccc(C2=Cc3cc(Cl)ccc3OC2)cc1 | > 100 | > 100 | > 100 | > 100 | > 100 | > 100 | > 100 | > 100 | > 100 |  |  |  |  |  |  |  | 
Cc1csc2[n+]1-c1ccccc1N(C(=O)Nc1ccccc1)C(C)C2 (configuration not stated) | 31.5 |  | > 100 | > 100 |  | > 100 | > 100 | > 100 |  | 16.5 | 59.1 | > 100 | 36.6 | > 100 | 43.7 | 41.9 | 41
O=C(CCCN1CCC(O)(c2ccc(Cl)cc2)CC1)c1ccc(F)cc1 | 33.6 |  | > 100 | 39.5 |  | 34.6 | > 100 | 39.6 |  |  |  | > 100 |  |  |  |  | 
O=C1CC(c2ccccc2)=Nc2ccccc2N1 | > 100 | > 100 | > 100 | > 100 |  | > 100 | > 100 | 51.8 | > 100 |  |  |  |  |  |  |  | 
CCOC(=O)/C(=C/c1ccc(C(=O)OC)cc1)N(CC)CC | > 100 | 91.7 |  | > 100 | > 100 | > 100 | > 100 | > 100 |  |  |  |  |  |  |  |  | 
Cc1cc2c(cc1Cl)S/C(=C/C(=O)O)C(Nc1ccc3ncsc3c1)=NS2(=O)=O | > 42.9 |  | > 100 | > 61.3 |  | > 38.1 | > 42.9 | > 56 |  | 9.93 | 14.2 | > 49.4 | 19.4 | > 29.3 | 12.7 | 17 | 16.3
C=CCN(CCNS(=O)(=O)c1ccc(C)cc1)S(=O)(=O)c1ccc(C)cc1 | > 100 |  | > 100 | 94.3 |  | > 100 | > 100 | > 100 |  |  |  | > 100 |  |  |  |  | 
CCC(C)Nc1ccc(N)cc1 (configuration not stated) | 8.73 |  | 10.7 | 8.61 |  | 15.5 | 14.9 | 15.5 |  | 2.73 | 2.56 | 11.2 | 3.16 | 3.21 | 4.72 | 4.14 | 4.16
Nc1nc([Se])c2ncn(C3OC(CO)C(O)C3O)c2n1 (configuration not stated) | > 100 |  | 82.9 | > 100 |  | > 100 | > 100 | > 100 |  | 4 | 24.8 | > 100 | 4.29 | 59.8 | 4.28 | 3.73 | 28.8
OC(COC(c1ccccc1)(c1ccccc1)c1ccccc1)C(O)CC1SCCS1 (configuration not stated) | 37.1 |  | 34.3 | 34.3 |  | 84.3 | 30.7 | > 100 |  |  |  | 31.8 |  |  |  |  | 
